In PubChem BioAssay AID2477 (Broad Institute, 2010) one finds EC50 data, which are given here for twelve compounds.

This assay relates to Streptococcus pyogenes UMAA2166 viability, BacTiter-Glo luminescence, 6 h. Kind of assay: Streptococcus pyogenes growth inhibition counter-screen, dose response, counter-screen for streptokinase expression inhibitor project, luminescence, BacTiter-Glo, strain UMAA2166 (AID 2477). Background: The purpose of a counterscreen is to sort out artefacts and off-target activity.

The structures appear in SMILES notation. Several values for one entry are separate records, joined by “and”; a condition that tells them apart may be missing. Equal entries are not always repeated.

One may read the EC50 as the concentration that produces a half-maximal response. Low values mean higher potency in that assay, high ones lower potency in that assay. Take `Cc1ccc(Sc2ccc(NC(=O)c3ccc(F)cc3)cc2C#N)cc1`: the EC50 (measured here: retest run 2) was > 500 µM, the EC50 (measured here: retest run 3) is > 500 µM and the concentration for a half-maximal effect (EC50) (measured here: retest run 4) is > 500 µM.
As for `COc1ccc(Sc2ccc(NC(=O)c3ccccc3Cl)cc2C#N)cc1`, the 50% effective concentration (EC50) is > 500 µM (inactive) and 36.7 µM. The EC50 (measured here: retest run 2) is > 500 µM. The 50% effective concentration (EC50) (measured here: retest run 3) stood at 45.4 µM. Also, the concentration for a half-maximal effect (EC50) (measured here: retest run 4) was > 500 µM.
On to `COc1nc(-c2ccccc2)nc2ccccc12`, for which the EC50 (measured here: retest run 2) is > 500 µM, the EC50 (measured here: retest run 3) is > 500 µM and the concentration for a half-maximal effect (EC50) (measured here: retest run 4) is > 500 µM.
Take `COc1ccc(-c2nc(OC)c3ccccc3n2)cc1`: the EC50 runs as follows: (measured here: retest run 2) > 500 µM; (measured here: retest run 3) > 500 µM.
On to `COc1ccc(Sc2ccc(NC(=O)c3cccc(Cl)c3)cc2C#N)cc1`, for which, where the note is “measured here: retest run 2”, the concentration for a half-maximal effect (EC50) was > 500 µM.
With `CCCOc1ccc(-c2nc(Oc3ccc(OC)cc3)c3ccccc3n2)cc1`, the EC50 is > 500 µM (measured here: retest run 2), > 500 µM (measured here: retest run 3) and > 500 µM (measured here: retest run 4).
With `N#Cc1cc(NC(=O)c2ccc(Cl)cc2)ccc1Sc1ccccc1`, the concentration for a half-maximal effect (EC50) is 70.5 µM (measured here: retest run 2) and 69.3 µM (measured here: retest run 3).
Turning to `CCCOc1ccc(-c2nc(OC)c3ccccc3n2)cc1`, the EC50 (measured here: retest run 2) is > 500 µM, the EC50 (measured here: retest run 3) is > 500 µM and the half-maximal effective concentration (EC50) (measured here: retest run 4) was > 500 µM.
`CC(C)Oc1nc(-c2ccc(Cl)cc2)nc2ccccc12`: the EC50 reads like this: (measured here: retest run 2) 47 µM; (measured here: retest run 3) > 500 µM; (measured here: retest run 4) > 500 µM.
Consider `CCCOc1ccc(-c2nc(Oc3ccccc3)c3ccccc3n2)cc1`, for which the EC50 (measured here: retest run 2) was > 500 µM, the half-maximal effective concentration (EC50) (measured here: retest run 3) was > 500 µM and the EC50 (measured here: retest run 4) is > 500 µM.
For the compound `COc1ccc(S(=O)(=O)c2ccc(NC(=O)c3ccccc3Cl)cc2C#N)cc1`, the EC50 was > 500 µM (measured here: retest run 2), > 500 µM (measured here: retest run 3) and > 500 µM (measured here: retest run 4).
For the compound `COc1cccc(-c2nc(OC(C)C)c3ccccc3n2)c1`, the EC50 runs as follows: (measured here: retest run 2) > 500 µM; (measured here: retest run 3) > 500 µM; (measured here: retest run 4) > 500 µM.
